Assays:
recipient hCMEC/D3 BECs = experiment: Uptake of MitoT-red-EVs into recipient hCMEC/D3 cells, flow cytometry; format: cell-based, human; details: cells pre-stained with 100 nM MitoT-red for 30 min
Procedure: Uptake of Mitotracker-labeled naïve and mito-EVs into the recipient hCMEC/D3 cells (isolation of mitochondria-labeled naïve and mito-EVs) hCMEC/D3 BECs and NIH/3T3 fibroblasts were cultured in T175 flasks to confluency. The complete growth medium was removed and cells were washed with 1× PBS. Cells were treated with 100 nM MitoTracker deep red (MitoT-red) diluted in serum-free medium for 30 min in a 37° C. humidified incubator, and following that, the cells were washed with 1× PBS. For naïve EVs, cells were incubated with serum-free medium for 48 h, whereas for mito-EVs, cells were incubated with serum-free medium containing 10 μM Resveratrol for 48 h. Post-incubation, the conditioned medium was collected into polystyrene centrifuge tubes. […] The EV protein content in MitoT-red-sEVs and MitoT-red-m/lEVs were determined using MicroBCA assay, and the samples were stored at −80° C. until further use.
Uptake of hCMEC/D3 BEC- and NIH/3T3 fibroblast-derived MitoT-red-EVs into recipient hCMEC/D3 cells using flow cytometry hCMEC/D3 BECs (P31) were seeded in a 48-well plate at a seeding density of 50,000 cells/well in complete growth medium and cultured for 48 hours in a humidified incubator at 37° C. […] For each sample, an aliquot of a 100 μL cell suspension was analyzed on an Attune N×T Flow cytometer and 10,000 events were recorded in FSC vs. SSC plots. […]

PGC-1α [1] = experiment: PGC-1α protein expression by western blotting in Resveratrol-treated NIH/3T3 fibroblasts; format: cell-based, mouse; details: NIH/3T3 cells, 24 h, vs untreated cells
Procedure: (§1) Measurement of PGC-1α expression using western blotting (Activation of hCMEC/D3 brain endothelial cells and NIH/3T3 fibroblasts with Resveratrol and preparation of cell lysate for western blotting) hCMEC/D3 brain endothelial cells (BECs) and NIH/3T3 fibroblasts were seeded in a 24-well plate at 100,000 cells/well-seeding density in complete growth medium and cultured for 48 hours in a humidified incubator at 37° C. The cells were treated with different concentrations of Resveratrol ranging from 0.1 to 50 μM in complete growth medium for 24 h. Untreated cells were incubated with a complete growth medium and used as the control for the treatment groups. Post-treatment, the cells were washed with 1× PBS, and the cell suspension was collected in centrifuge tubes. The cell suspension was centrifuged at 300×g for 10 min at 4° C., washed with 1× PBS, and the cell pellet was lysed with 1× RIPA buffer containing 3 μg/mL aprotinin. The total protein concentration in the cell lysates was measured using a BCA assay.
(§2) Detection of PGC1α protein expression in hCMEC/D3 BECs and NIH/3T3 fibroblasts using western blotting A 40 μg cell lysate of untreated and Resveratrol treated hCMEC/D3 BECs and NIH/3T3 fibroblasts were mixed with 4× laemmli buffer and distilled water. The mixture was heated at 95° C. for 5 min using a heating block (Thermo Scientific). Denatured samples and standard molecular weight markers (ladder, 250-25 kD) were separated on a 4-10% gradient sodium dodecyl sulfate polyacrylamide gel at 120 V for 90 min using a PowerPac Basic setup (Bio-Rad Laboratories, Inc.). The gel was washed with deionized water for 30 min, and the proteins were transferred from the gel to a 0.45 μm nitrocellulose membrane using a transfer assembly (Bio-Rad Laboratories, Inc.) at 75 V and 300 mA for 90 min. Following that, the membrane was washed with tris-buffered saline pH 7.4 containing 1% tween 20 (T-TBS) for 45 min and blocked with Intercept blocking buffer (Li-COR Inc., Lincoln, NE) for an hour at room temperature. […]

PGC-1α [2] = experiment: PGC-1α protein expression by western blotting in Resveratrol-treated hCMEC/D3 BECs; format: cell-based, human; details: hCMEC/D3 cells
Procedure: as §1, §2

C[N+]1=C(/C=C/C=C/C=C2\N(Cc3ccc(CCl)cc3)c3ccccc3C2(C)C)C(C)(C)c2ccccc21.[Cl-] [MitoT-red]
MitoT+ve cells, positive control (recipient hCMEC/D3 BECs): about 77%

Oc1ccc(C=Cc2cc(O)cc(O)c2)cc1 [Resveratrol]
normalized PGC-1α expression (PGC-1α [1]; 10 μM Resveratrol): statistically significant (p<0.01) increase | PGC-1α expression (PGC-1α [1]; 50 μM Resveratrol): considerable (p=0.07) decrease | normalized PGC-1α expression (densitometry) (PGC-1α [1]; Resveratrol 0.1 to 50 μM): concentration-dependent increase in PGC-1α expression | PGC-1α and GAPDH protein expression (PGC-1α [2]; Resveratrol 10 μM to 50 μM, 24 h): gradual and considerable decrease | PGC-1α protein band densities (PGC-1α [2]; Resveratrol 0.1 and 1 μM, 24 h, vs untreated cells): slight increase | increase in normalized PGC-1α protein expression (PGC-1α [2]; Resveratrol up to 1 μM, vs untreated cells): 5%
